Source: US20260183393A1, “IMMUNOSUPPRESSANT-RESISTANT MODIFIED ALLOGENEIC MODIFIED IMMUNE CELLS AND METHODS FOR USE THEREOF” (Beam Therapeutics Inc., priority 2023, published 2026)

Experiments:
19CAR-T cells [1] = assay: CAR-T cell cytokine production assay; type: cell-based, human; conditions: corticosteroid treatment; JeKo-1 stimulation; IFNg and TNFa
Description: (§1) 10. Monensin and Brefeldin A were added to the cell cultures to inhibit protein secretion for the duration of the stimulation. After the 6 hours, the cells were stained with reagents against 19CAR, CD4, CD8, IFNg, and TNFa, and the cells were also stained using a viability stain. Fluorescence activated cell sorting (FACS) was then used to measure intracellular levels of IFNg (y-axis) and TNFa (x-axis) in CD4^+ 19CAR-T cells. In FIG. 10, the numbers in each quadrant of each contour plot represent the percent of total cells counted that fell within the quadrant.
as §1, with “CD8^+” for “CD4^+”
The following day, T cells were washed, counted and 1×10^5 cells were seeded in duplicate into a 96-well flat bottom plate alone or with 2×10^5 JeKo-1.GFP^+ tumor cells. […] Cells were incubated for 6 hours total before analysis by flow cytometry.

19CAR-T cells [2] = assay: CAR-T cell proliferation assay; type: cell-based, human; conditions: corticosteroid treatment; JeKo-1 stimulation
Excerpt: Primary human T cells were activated using an anti-CD3/CD28/CD2 reagent. Two-days after being contacted with the reagent, the T cells were edited using a base editor system containing the guide polynucleotide TSBT×1538 and the base editor ABE8.20m using electroporation, as described above. Following electroporation, both the T cells were transduced with a lentiviral vector encoding an anti-CD19 CAR (19CAR) and allowed to expand in culture for approximately 7 days before being cryopreserved for later analysis. Unedited anti-CD19 CAR-T cells were prepared as a negative control. The 19CAR-T cells were then thawed from cryopreservation and rested overnight before being stimulated using dynabeads coated with recombinant human CD19 protein-coated at a bead-to-cell ratio of 1:1. The T cells were cultured in the presence of 100 nM of the immunosuppressant rapamycin or dimethylsulfoxide (DMSO) as a control for 6 days. The total number of T cells were enumerated using a NucleoCounter NC-200™ automated cell counter.
Primary human T cells were activated using an anti-CD3/CD28/CD2 reagent. Two days after being contacted with the reagent, the T cells were edited using a base editor system containing the guide polynucleotide TSBT×1538 and the base editor ABE8.20m using the electroporation protocol described above. Both edited and unedited T cells were transduced with a lentiviral vector encoding an anti-CD19 CAR (19CAR) and allowed to expand in culture for approximately 7 days before being cryopreserved for later analysis. Unedited 19CAR-T cells were used as a control. For analysis, the 19CAR-T cells were thawed and rested for 72 hours before labeling using a CellTrace™ Far Red (CTFR) dye. After CTFR labeling, the 19CAR-T cells were stimulated using an Immunocult™ Human CD3/CD28/CD2 universal T cell activator in the presence of 100 nM of the immunosuppressant agent rapamycin or in the presence of DMSO (control) and allowed to incubate for an additional 3 days. Following the three-day incubation, the T cells were analyzed using flow cytometry to measure dilution of CTFR dye as an indicator of cell proliferation.
The following day, T cells were washed, counted and 1×10^4 cells were seeded in triplicate into a 96-well flat bottom plate alone or with 1×10^4 JeKo-1.GFP^+ tumor cells. […] On day 7, samples were analyzed by flow cytometry and 19CAR-T cells were enumerated using CountBright Counting Beads (Thermo Fisher Scientific) following the manufacturer's protocol.

endogenous NK cells = assay: IL-15 treatment of HIS mice, elimination of HLA-deficient T cells; type: in vivo, BLT mice; conditions: 2.5 mg every 2-3 days, 6 total injections
Excerpt: FIGS. 20A to 20E provide plots, a schematic diagram, and a flow cytometry scatter plot showing human immune system (HIS) mice under-reconstituted human NK cells and necessitated IL-15 treatment to eliminate HLA-deficient T cells. FIG. 20A provides a plot showing frequency of human CD56^+ NK cells of CD45^+ cells in PBMCs from human donors (n=10), BLT-NSG mice (Cohort A, n=18; Cohort B, n=15; Cohort C, n=18) and huCD34^+ NCG mice (Cohort D, n=17; Cohort E, n=12; Cohort F, n=24; Cohort G, n=12). FIGS. 20B to 20E relate to an experiment where HIS mice were treated every 2-3 days with recombinant human IL-15 (2.5 mg) or PBS for 6 total injections. Mice were then coinfused 1:1 ratio with allogeneic CD4-based CAR-T cells that were base-edited for TCRKO (HLA+) or TCRKOb2MKOCIITAKO (HLA−). […] Statistical significance was calculated by Wilcoxon matched-pairs signed rank test (FIG. 20E).
For the study described in FIGS. 20A to 20E, BLT mice received intraperitoneal injections every 2-3 days of 2.5 mg recombinant human IL-15 (BioLegend; n=6) or sterile PBS (n=3) for 6 total injections. […] Persistence of 4CAR-T cells was monitored at 1-, 4- and 7-days post-T cell infusion via blood draw from the retro-orbital sinus. […] Persistence of 4CAR-T cells was monitored at 1-day post-T cell infusion and weekly thereafter via blood draw from submandibular vein.

donor T cells = conditions: 10 nM dose of AP1903; cells expressing iCasp9; cited from earlier work
PPIA protein = assay: Flow cytometry of PPIA protein in edited T cells; type: cell-based, human; conditions: T cells edited with ABE8.20m and the guide, five days
Excerpt: FIG. 7 provides a set of overlaid flow cytometry histograms confirming knock-out of PPIA protein expression in primary human T cells edited using base editor systems containing
ABE8.20m and the guide polynucleotide TSBT×6143 or TSBT×6146 (see Table 1 for nucleotide sequences). Five days following being contacted with the base editor systems, the T cells were stained using LIVE/DEAD™ Fixable Near-Infra Red (NIR) stain (Thermo). The cells were then fixed and permeabilized followed by immunostaining using a primary antibody targeting PPIA (polyclonal Cyclophilin A Antibody from ProteinTech; 10720-1-AP). The cells were then contacted with a secondary antibody (polyclonal Goat anti-Rabbit IgG (H+L) Cross-Adsorbed Secondary Antibody labeled using Alexa Fluor™ 488 and available from Invitrogen; A-11008) and analyzed using flow cytometry. Unedited cells and isotype control antibody stained cells were used as controls representing high and low levels of PPIA protein, respectively. The x-axis of FIG. 7 indicates the level of PPIA protein measured. In FIG. 7, the y-axis represents cell counts normalized to the mode cell count measured for PPIA expression levels in a sample (i.e., the most frequently counted expression level was set to have a total cell count value (y-axis value) equal to 100).

Molecule: C[C@@H]1C[C@H]2[C@@H]3CCC4=CC(=O)C=C[C@]4(C)[C@@]3(F)[C@@H](O)C[C@]2(C)[C@@]1(O)C(=O)CO [dexamethasone, Dexamethasone]
- cytokine production of FKBP1A^KO 19CAR-T cells (19CAR-T cells [1]): suppressed
- antigen-driven proliferation of FKBP1A^KO 19CAR-T cells (19CAR-T cells [2]): suppressed

Molecule: recombinant human IL-15: recombinant human IL-15 (BioLegend)
- priming of endogenous NK cells against b2M^KO T cells (endogenous NK cells): prime endogenous NK cells against b2M^KO T cells in vivo

Molecule: C[C@]12C=CC(=O)C=C1CC[C@@H]1[C@@H]2C(=O)C[C@@]2(C)[C@H]1CC[C@]2(O)C(=O)CO [prednisone, Prednisone]
- cytokine production of FKBP1A^KO 19CAR-T cells (19CAR-T cells [1]): suppressed
- antigen-driven proliferation of FKBP1A^KO 19CAR-T cells (19CAR-T cells [2]): suppressed

Molecule: CC[C@H](C(=O)N1CCCC[C@H]1C(=O)O[C@H](CCc1ccc(OC)c(OC)c1)c1cccc(OCC(=O)NCCNC(=O)COc2cccc([C@@H](CCc3ccc(OC)c(OC)c3)OC(=O)[C@@H]3CCCCN3C(=O)[C@@H](CC)c3cc(OC)c(OC)c(OC)c3)c2)c1)c1cc(OC)c(OC)c(OC)c1 [AP1903]
- apoptosis of donor T cells (donor T cells): approximately 99%

B1: TSBT×6146: guide polynucleotide targeting PPIA (nucleic acid)
guide: CGTACCTGACACATAAACCCGTTTTAGAGCTAGAAATAGCAAGTTAAAATAAGGCTAGTCCGTTATCAACTTGAAAAAGTGGCACCGAGTCGGTGCTTTT
modifications: chemistry not given here
notes: guide polynucleotide targeting PPIA
- PPIA expression (PPIA protein): Knock-out of PPIA expression

B2: TSBT×6143: guide polynucleotide targeting PPIA (nucleic acid)
guide: GCCCGACCTCAAAGGAGACGGTTTTAGAGCTAGAAATAGCAAGTTAAAATAAGGCTAGTCCGTTATCAACTTGAAAAAGTGGCACCGAGTCGGTGCTTTT
modifications: chemistry not given here
notes: as for B1
- PPIA expression (PPIA protein): Knock-out of PPIA expression
